# “And” between values parts separate entries of the source, which are not always exact repeats. Equal values may be shown once. Marks after values point to notes of the source that are not given here.
# Assays:
# [1] = test system: recalcified citrated whole blood; assay: Accelerated whole blood clotting time (AWBCT), recalcified citrated whole blood (RCCWB); type: cell-based
# Protocol: Comparison of the results using native blood and citrated blood was made. 9 parts of citrated blood was added to 1 part calcium n chloride 133 mM, mixed and aliquotes of the recalcified citrated blood added to the wells of the coagulometer containing duplicates of saline control and dilutions of collagen. A concentration of […] calcium chloride is considered to be optimal; but concentrations in the range of, for example, 110-140 mM may be used. However, it should be noted that the length and un-reliability of coagulation times increase with concentrations further from the optimum, especially with higher values.
# (§1) Whilst native blood is tested immediately after collection, for example, within two minutes, citrated blood may be stored for a longer period, before being recalcified immediately before the test is conducted. The interval between blood collection and testing may be on the order of one hour. It should be noted that shorter collection intervals give more reliable results.
# (§2) The test is performed on native freshly drawn venous blood, or recalcified citrated blood or heparinised blood.
# (§3) 100 μL of saline control or a range of concentration of a platelet agonists are added to the wells of a coagulometer and then 200 μL of native or RCCWB whole blood added and the coagulation time recorded. The potential agonists are; collagen, ADP, adrenalin, platelet activating factor, thrombin. It is anticipated that the agonist appropriate for specific roles will emerge in the course of clinical studies.
# (§4) Numbers are the time to coagulation in seconds. The results given are the averages of duplicates, unless otherwise indicated by an asterix, (corresponding to single coagulation times where spurious results have not been averaged).
# native whole blood = assay: Accelerated whole blood clotting time (AWBCT), native blood; type: cell-based
# Protocol: as §1, §2, §3, §4
molecule,measurement,setting,value
Heparin,time to coagulation (AWBCT),"[1]; RCCWB + Heparin 1.25 u/ml, collagen 0.125 mg/ml",325* seconds
same,time to coagulation (AWBCT),"[1]; RCCWB + Heparin 1.25 u/ml, collagen 0.25 mg/ml",302 s
same,time to coagulation (AWBCT),"[1]; RCCWB + Heparin 1.25 u/ml, collagen 0.5 mg/ml",71 s
same,time to coagulation (AWBCT),"[1]; RCCWB + Heparin 1.25 u/ml, collagen 1.0 mg/ml",54 s
same,time to coagulation (AWBCT),"[1]; RCCWB + Heparin 1.25 u/ml, saline",500+ seconds
same,time to coagulation (AWBCT),"[1]; RCCWB + Heparin 2.5 u/ml, collagen 0.125 mg/ml",340 s
same,time to coagulation (AWBCT),"[1]; RCCWB + Heparin 2.5 u/ml, collagen 0.25 mg/ml",405 s
same,time to coagulation (AWBCT),"[1]; RCCWB + Heparin 2.5 u/ml, collagen 0.5 mg/ml",61 s
same,time to coagulation (AWBCT),"[1]; RCCWB + Heparin 2.5 u/ml, collagen 1.0 mg/ml",41 s
same,time to coagulation (AWBCT),"[1]; RCCWB + Heparin 2.5 u/ml, saline",600+ seconds
same,time to coagulation (AWBCT),"[1]; RCCWB, Heparin 5.0 u/ml, collagen 0.125 mg/ml",600+ seconds
same,time to coagulation (AWBCT),"[1]; RCCWB, Heparin 5.0 u/ml, collagen 0.25 mg/ml",600+ seconds
same,time to coagulation (AWBCT),"[1]; RCCWB, Heparin 5.0 u/ml, collagen 0.5 mg/ml",48 s
same,time to coagulation (AWBCT),"[1]; RCCWB, Heparin 5.0 u/ml, collagen 1.0 mg/ml",31 s
same,time to coagulation (AWBCT),"[1]; RCCWB, Heparin 5.0 u/ml, saline",600+ seconds
same,time to coagulation (AWBCT),"[1]; RCCWB, Heparin 10 u/ml, collagen 0.125 mg/ml",600+ seconds
same,time to coagulation (AWBCT),"[1]; RCCWB, Heparin 10 u/ml, collagen 0.25 mg/ml",600+ seconds
same,time to coagulation (AWBCT),"[1]; RCCWB, Heparin 10 u/ml, collagen 0.5 mg/ml",34 s
same,time to coagulation (AWBCT),"[1]; RCCWB, Heparin 10 u/ml, collagen 1.0 mg/ml",27 s
same,time to coagulation (AWBCT),"[1]; RCCWB, Heparin 10 u/ml, saline",600+ seconds
collagen,time to coagulation (AWBCT),"[1]; RCCWB 50 mins later, collagen 0.125 mg/ml",190 s
same,time to coagulation (AWBCT),"[1]; RCCWB 50 mins later, collagen 0.25 mg/ml",184 s
same,time to coagulation (AWBCT),"[1]; RCCWB 50 mins later, collagen 0.5 mg/ml",181 s
same,time to coagulation (AWBCT),"[1]; RCCWB 50 mins later, collagen 1.0 mg/ml",55 s
same,time to coagulation (AWBCT),"[1]; RCCWB 75 mins later, collagen 0.125 mg/ml",202 s
same,time to coagulation (AWBCT),"[1]; RCCWB 75 mins later, collagen 0.25 mg/ml",209 s
same,time to coagulation (AWBCT),"[1]; RCCWB 75 mins later, collagen 0.5 mg/ml",70 s
same,time to coagulation (AWBCT),"[1]; RCCWB 75 mins later, collagen 1.0 mg/ml",50 s
same,time to coagulation (AWBCT),"[1]; RCCWB, collagen 0.125 mg/ml",166 s and 159 s and 177 s and 178 s
same,time to coagulation (AWBCT),"[1]; RCCWB, collagen 0.25 mg/ml",185 seconds and 151 seconds and 165 seconds and 161* seconds
same,time to coagulation (AWBCT),"[1]; RCCWB, collagen 1.0 mg/ml",44 s and 49 s and 39 s and 56 s
same,time to coagulation (AWBCT),native whole blood; collagen 0.125 mg/ml,178 s and 134 s and 140 s and 149 s
same,time to coagulation (AWBCT),native whole blood; collagen 0.25 mg/ml,162 s and 111 s and 125 s and 137 s
same,time to coagulation (AWBCT),native whole blood; collagen 1.0 mg/ml,34 seconds and 28* seconds and 24 seconds and 29 seconds
Low Molecular Weight Heparin [LMWH],time to coagulation (AWBCT),"native whole blood; LMWH 0.25 u/ml, collagen 0.125 mg/ml",233 s
same,time to coagulation (AWBCT),"native whole blood; LMWH 0.25 u/ml, collagen 0.25 mg/ml",224 s
same,time to coagulation (AWBCT),"native whole blood; LMWH 0.25 u/ml, collagen 0.5 mg/ml",204* seconds
same,time to coagulation (AWBCT),"native whole blood; LMWH 0.25 u/ml, collagen 1.0 mg/ml",64 s
same,time to coagulation (AWBCT),"native whole blood; LMWH 0.25 u/ml, saline",500+ seconds
same,time to coagulation (AWBCT),"native whole blood; LMWH 0.5 u/ml, collagen 0.125 mg/ml",226 s
same,time to coagulation (AWBCT),"native whole blood; LMWH 0.5 u/ml, collagen 0.25 mg/ml",228 s
same,time to coagulation (AWBCT),"native whole blood; LMWH 0.5 u/ml, collagen 0.5 mg/ml",41 s
same,time to coagulation (AWBCT),"native whole blood; LMWH 0.5 u/ml, collagen 1.0 mg/ml",46 s
same,time to coagulation (AWBCT),"native whole blood; LMWH 0.5 u/ml, saline",500+ seconds
same,time to coagulation (AWBCT),"native whole blood; LMWH 1.0 u/ml, collagen 0.125 mg/ml",318 s
same,time to coagulation (AWBCT),"native whole blood; LMWH 1.0 u/ml, collagen 0.25 mg/ml",259 s
same,time to coagulation (AWBCT),"native whole blood; LMWH 1.0 u/ml, collagen 0.5 mg/ml",48* seconds
same,time to coagulation (AWBCT),"native whole blood; LMWH 1.0 u/ml, collagen 1.0 mg/ml",27* seconds
same,time to coagulation (AWBCT),"native whole blood; LMWH 1.0 u/ml, saline",500+ seconds
same,time to coagulation (AWBCT),"native whole blood; LMWH 2.0 u/ml, collagen 0.125 mg/ml",500+ seconds
same,time to coagulation (AWBCT),"native whole blood; LMWH 2.0 u/ml, collagen 0.25 mg/ml",500+ seconds
same,time to coagulation (AWBCT),"native whole blood; LMWH 2.0 u/ml, collagen 0.5 mg/ml",500+ seconds
same,time to coagulation (AWBCT),"native whole blood; LMWH 2.0 u/ml, collagen 1.0 mg/ml",295 s
same,time to coagulation (AWBCT),"native whole blood; LMWH 2.0 u/ml, saline",500+ seconds
CC(=O)Oc1ccccc1C(=O)O [Aspirin],time to coagulation (AWBCT),"[1]; RCCWB, aspirin 40 μg/ml, collagen 0.125 mg/ml, collection interval +135 min",275 s
same,time to coagulation (AWBCT),"[1]; RCCWB, aspirin 40 μg/ml, collagen 0.25 mg/ml, collection interval +135 min",274 s
same,time to coagulation (AWBCT),"[1]; RCCWB, aspirin 40 μg/ml, collagen 0.5 mg/ml, collection interval +135 min",216 s
same,time to coagulation (AWBCT),"[1]; RCCWB, aspirin 40 μg/ml, collagen 1.0 mg/ml, collection interval +135 min",184 s
same,time to coagulation (AWBCT),"[1]; RCCWB, aspirin 40 μg/ml, saline, collection interval +135 min",500 s
same,time to coagulation (AWBCT),"[1]; RCCWB, aspirin 80 μg/ml, collagen 0.125 mg/ml, collection interval +106 min",224 s
same,time to coagulation (AWBCT),"[1]; RCCWB, aspirin 80 μg/ml, collagen 0.25 mg/ml, collection interval +106 min",236 s
same,time to coagulation (AWBCT),"[1]; RCCWB, aspirin 80 μg/ml, collagen 0.5 mg/ml, collection interval +106 min",218* seconds
same,time to coagulation (AWBCT),"[1]; RCCWB, aspirin 80 μg/ml, collagen 1.0 mg/ml, collection interval +106 min",212 s
same,time to coagulation (AWBCT),"[1]; RCCWB, aspirin 80 μg/ml, saline, collection interval +106 min",468 s
"Nc1ncnc2c1ncn2[C@@H]1O[C@H](COP(=O)(O)OP(=O)(O)O)[C@@H](O)[C@H]1O [ADP, adenosine diphosphate]",time to coagulation (AWBCT),"[1]; recalcified whole blood, ADP 12.5 μM, collection interval +65 mins",329 s
same,time to coagulation (AWBCT),"[1]; recalcified whole blood, ADP 25 μM, collection interval +65 mins",358 s
same,time to coagulation (AWBCT),"[1]; recalcified whole blood, ADP 50 μM, collection interval +65 mins",348 s
same,time to coagulation (AWBCT),"[1]; recalcified whole blood, ADP 100 μM, collection interval +65 mins",341 s
same,time to coagulation (AWBCT),native whole blood; ADP 6.25 μM,265 s
same,time to coagulation (AWBCT),native whole blood; ADP 12.5 μM,269 s
same,time to coagulation (AWBCT),native whole blood; ADP 25 μM,272 s
same,time to coagulation (AWBCT),native whole blood; ADP 50 μM,255 s

# From patent US6617166B2, “Measurement of accelerated whole blood clotting time” (Prophylaxis Limited, priority 1999, dated 2003)
